Reference: patent US20140051679A1, “KINASE INHIBITORS AND METHOD OF TREATING CANCER WITH SAME” (UNIVERISTY HEALTH NETWORKS, priority 2011, published 2014)

How the values were obtained:
Format in all cases: biochemical
Aurora B = molecular target: T1, Aurora B (Homo sapiens, UniProt Q96GD4); assay: Aurora B inhibition assay (Z-Lyte); details: 28 nM Aurora B, 128 μM ATP; read-out: IC50 Ranges Aurora B
T1 construct: purchased Invitrogen PV3970
Method: Aurora B inhibition was determined using the Z-Lyte assay kit from Invitrogen. The assay was performed using the recommended manufacturer's instructions with 128 μM ATP and 28 nM Aurora B (Invitrogen cat #PV3970). The % inhibition values were determined according to the manufacturer's directions and IC50 values were obtained using a non-linear 4 point logistic curve fit (XLfit4, IDBS)

human PLK4 = molecular target: T2, human PLK4 (Homo sapiens, UniProt O00444); assay: PLK4 inhibition assay (indirect ELISA); details: GST-PLK4 4 nM, 15 μM ATP; read-out: IC50 Ranges PLK4
T2 construct: amino terminal GST fusion of residues 1-391 of human PLK4; made in house; host or cells: E. coli
T2 sequence (O00444 1-391): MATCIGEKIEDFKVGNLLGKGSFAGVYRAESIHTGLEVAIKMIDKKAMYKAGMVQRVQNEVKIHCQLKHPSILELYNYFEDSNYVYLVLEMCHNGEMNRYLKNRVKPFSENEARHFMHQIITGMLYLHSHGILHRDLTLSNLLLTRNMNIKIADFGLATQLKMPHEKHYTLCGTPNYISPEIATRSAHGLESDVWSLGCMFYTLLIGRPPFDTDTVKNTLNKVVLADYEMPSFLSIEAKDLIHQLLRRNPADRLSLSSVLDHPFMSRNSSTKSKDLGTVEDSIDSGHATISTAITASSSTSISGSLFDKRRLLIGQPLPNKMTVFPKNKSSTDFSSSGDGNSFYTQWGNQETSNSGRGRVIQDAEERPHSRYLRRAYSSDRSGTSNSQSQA
Method: Active PLK4 was purified from an E. coli expression system as an amino terminal GST fusion of residues 1-391 of human PLK4. The protein was purified from clarified cell extracts after induction at 15° C. overnight using glutathione sepharose, gel permeation chromatography, and ion exchange (Resource Q). The resulting protein was dephosphorylated with lambda phosphatase (NEB cat#P0753), and resolved from the phosphatase using gluthione sepharose. The dephosphorylated GST-PLK4 was stored in aliquots at −80° C. until use.
PLK4 activity was measured using an indirect ELISA detection system. GST-PLK4 (4 nM) was incubated in the presence of 15 μM ATP (Sigma cat#A7699), 50 mM HEPES-Na^2+ pH 7.5, 10 mM MgCl2, 0.01% Brij 35 (Sigma cat#03-3170), in a 96 well microtitre plate pre-coated with MBP (Millipore cat#30-011). The reaction was allowed to proceed for 30 minutes, followed by 5 washes of the plate with Wash Buffer (phosphate buffered saline supplemented with 0.2% Tween 20), and incubation for 30 minutes with a 1:3000 dilution of primary antibody (Cell Signaling cat#9381). The plate was washed 5 times with Wash Buffer, incubated for 30 minutes in the presence of secondary antibody coupled to horse radish peroxidase (BioRad cat#1721019, 1:3000 concentration), washed an additional 5 times with Wash Buffer, and incubated in the presence of TMB substrate (Sigma cat#T0440). The colourimetric reaction was allowed to continue for 5 minutes, followed by addition of stop solution (0.5 N sulphuric acid), and quantified by detection at 450 nm with either a monochromatic or filter based plate reader (Molecular Devices M5 or Beckman DTX880, respectively).
Compound inhibition was determined at either a fixed concentration (10 μM) or at a variable inhibitor concentration (typically 0.5 μM to 0.001 μM in a 10 point dose response titration). Compounds were pre-incubated in the presence of enzyme for 15 minutes prior to addition of ATP and the activity remaining quantified using the above described activity assay. The % Inhibition of a compound was determined using the following formula; % Inhibition=100×(1-(experimental value−background value)/(high activity control−background value)). The IC50 value was determined using a non-linear 4 point logistic curve fit (XLfit4, IDBS) with the formula; (A+(B/(1+((x/C)̂D)))), where A=background value, B=range, C=inflection point, D=curve fit parameter.

human TTK = molecular target: T3, human TTK (Homo sapiens, UniProt P33981); assay: TTK inhibition assay (indirect ELISA); details: GST-TTK 0.68 nM, 16 μM ATP; read-out: IC50 Ranges TTK
T3 construct: amino terminal GST fusion of full length human TTK; purchased Invitrogen
T3 sequence (P33981 1-857): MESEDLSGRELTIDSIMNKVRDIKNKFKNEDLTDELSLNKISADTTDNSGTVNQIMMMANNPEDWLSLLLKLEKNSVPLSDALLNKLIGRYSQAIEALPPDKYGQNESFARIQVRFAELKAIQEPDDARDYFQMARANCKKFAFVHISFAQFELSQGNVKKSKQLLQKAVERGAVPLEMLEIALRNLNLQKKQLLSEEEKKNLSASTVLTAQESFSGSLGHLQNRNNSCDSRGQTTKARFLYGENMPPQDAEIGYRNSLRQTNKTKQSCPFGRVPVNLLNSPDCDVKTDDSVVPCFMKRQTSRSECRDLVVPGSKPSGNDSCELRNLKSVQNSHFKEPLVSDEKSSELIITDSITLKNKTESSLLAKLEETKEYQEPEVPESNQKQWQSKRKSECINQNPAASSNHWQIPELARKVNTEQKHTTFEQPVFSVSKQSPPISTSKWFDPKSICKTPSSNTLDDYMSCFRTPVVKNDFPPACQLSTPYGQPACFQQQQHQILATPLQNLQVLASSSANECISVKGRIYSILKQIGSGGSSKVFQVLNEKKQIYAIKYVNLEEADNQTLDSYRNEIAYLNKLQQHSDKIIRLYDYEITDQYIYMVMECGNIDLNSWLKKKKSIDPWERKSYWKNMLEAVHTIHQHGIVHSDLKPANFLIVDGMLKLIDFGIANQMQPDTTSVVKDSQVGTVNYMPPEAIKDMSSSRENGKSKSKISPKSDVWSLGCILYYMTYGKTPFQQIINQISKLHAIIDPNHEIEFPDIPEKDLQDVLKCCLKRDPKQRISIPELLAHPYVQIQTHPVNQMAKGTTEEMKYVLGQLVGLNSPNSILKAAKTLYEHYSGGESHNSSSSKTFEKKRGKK

T1 sequence (Q96GD4 whole entry): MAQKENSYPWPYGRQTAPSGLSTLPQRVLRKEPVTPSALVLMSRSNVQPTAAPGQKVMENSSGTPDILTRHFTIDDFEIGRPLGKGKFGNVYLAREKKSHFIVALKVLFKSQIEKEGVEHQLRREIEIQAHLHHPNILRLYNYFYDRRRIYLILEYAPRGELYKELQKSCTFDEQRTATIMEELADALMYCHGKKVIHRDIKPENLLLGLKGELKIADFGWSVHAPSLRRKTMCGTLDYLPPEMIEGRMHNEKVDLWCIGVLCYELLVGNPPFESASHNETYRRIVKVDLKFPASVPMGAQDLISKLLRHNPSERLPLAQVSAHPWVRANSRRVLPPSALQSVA

Row | IC50 (Aurora B) | IC50 (human PLK4) | IC50 (human TTK) | SMILES
1 | ≤ 5 µM | ≤ 5 µM |  | CN1CCC(Oc2ccc(-c3n[nH]c4ccc(NC(=O)C(c5ccsc5)N5CCCC5)cc34)cc2)CC1 (centres unmarked) [Example A7, N-(3-(4-((1-methylpiperidin-4-yl)oxy)phenyl)-1H-indazol-5-yl)-2-(pyrrolidin-1-yl)-2-(thiophen-3-yl)acetamide]
2 | ≤ 5 µM | ≤ 5 µM |  | O=C(Nc1ccc2[nH]nc(-c3ccc(N4CCC(O)CC4)cc3)c2c1)C(c1ccsc1)N1CCCC1 (centres unmarked) [Example A9, N-(3-(4-(4-hydroxypiperidin-1-yl)phenyl)-1H-indazol-5-yl)-2-(pyrrolidin-1-yl)-2-(thiophen-3-yl)acetamide]
3 | ≤ 5 µM | ≤ 5 µM |  | CN1CCC(Oc2ccc(-c3n[nH]c4ccc(C(=O)NC(c5ccccc5)C5CC5)cc34)cc2)CC1 (centres unmarked) [Example A24, N-(cyclopropyl(phenyl)methyl)-3-(4-((1-methylpiperidin-4-yl)oxy)phenyl)-1H-indazole-5-carboxamide]
4 | ≤ 5 µM | ≤ 5 µM |  | CN1CCC(Oc2ccc(-c3n[nH]c4ccc(C(=O)N[C@H](c5ccccc5)C5CC5)cc34)cc2)CC1 [Example A42, (S)—N-(cyclopropyl(phenyl)methyl)-3-(4-((1-methylpiperidin-4-yl)oxy)phenyl)-1H-indazole-5-carboxamide]
5 |  | ≤ 5 µM | ≤ 5 µM | CCN(C(=O)Nc1ccc2[nH]nc(-c3ccc(N4CCOCC4)cc3)c2c1)c1ccccc1 [Example A72, 1-ethyl-3-(3-(4-morpholinophenyl)-1H-indazol-5-yl)-1-phenylurea]
6 |  | ≤ 5 µM | ≤ 5 µM | CN1CCN(c2ccc(-c3n[nH]c4ccc(NC(=O)C(c5ccsc5)N5CCCC5)cc34)cc2)C(=O)C1 (centres unmarked) [Example A94, N-(3-(4-(4-Methyl-2-oxopiperazin-1-yl)phenyl)-1H-indazol-5-yl)-2-(pyrrolidin-1-yl)-2-(thiophen-3-yl)acetamide]
7 | ≤ 5 µM | ≤ 5 µM |  | O=C(NC(c1ccsc1)C1CC1)c1ccc2[nH]nc(-c3ccc(N4CCC(O)CC4)cc3)c2c1 (centres unmarked) [Example A101, N-(cyclopropyl(thiophen-3-yl)methyl)-3-(4-(4-hydroxypiperidin-1-yl)phenyl)-1H-indazole-5-carboxamide]
8 | ≤ 5 µM | ≤ 5 µM |  | CN(C)CC(=O)N1CCC(Oc2ccc(-c3n[nH]c4ccc(C(=O)NC(c5ccccc5)C5CC5)cc34)cc2)CC1 (centres unmarked) [Example A130, N-(cyclopropyl(phenyl)methyl)-3-(4-((1-(2-(dimethylamino)acetyl)piperidin-4-yl)oxy)phenyl)-1H-indazole-5-carboxamide]
9 | ≤ 5 µM | ≤ 5 µM |  | CC[C@@H](NC(=O)c1ccc2[nH]nc(-c3ccc(OC4CCN(C)CC4)cc3)c2c1)c1ccccc1Cl [Example A131, (R)—N-(1-(2-chlorophenyl)propyl)-3-(4-((1-methylpiperidin-4-yl)oxy)phenyl)-1H-indazole-5-carboxamide]
10 | ≤ 5 µM | ≤ 5 µM |  | CN1CCC(Oc2ccc(-c3n[nH]c4ccc(NC(=O)C(c5ccccn5)C5CCCC5)cc34)cc2)CC1 (centres unmarked) [Example A179, 2-cyclopentyl-N-(3-(4-((1-methylpiperidin-4-yl)oxy)phenyl)-1H-indazol-5-yl)-2-(pyridin-2-yl)acetamide]
11 | ≤ 5 µM | ≤ 5 µM | ≤ 5 µM | COc1cc(-c2n[nH]c3ccc(C(=O)NC(c4ccccn4)C4CC4)cc23)ccc1OC1CCN(C=O)CC1 (centres unmarked) [Example A206, N-(cyclopropyl(pyridin-2-yl)methyl)-3-(4-((1-formylpiperidin-4-yl)oxy)-3-methoxyphenyl)-1H-indazole-5-carboxamide]
12 | ≤ 5 µM | ≤ 5 µM | ≤ 5 µM | CN1CCC(Oc2ccc(-c3n[nH]c4ccc(C(=O)NCC(c5ccccc5)C5CCCC5)cc34)cc2)CC1 (centres unmarked) [Example A207, N-(2-cyclopentyl-2-phenylethyl)-3-(4-((1-methylpiperidin-4-yl)oxy)phenyl)-1H-indazole-5-carboxamide]
13 | ≤ 5 µM | ≤ 5 µM |  | CN1CCC(Oc2ccc(-c3n[nH]c4ccc(C(=O)NC(c5ccccn5)C5CCCC5)cc34)cc2)CC1 (centres unmarked) [Example A208, N-(cyclopentyl(pyridin-2-yl)methyl)-3-(4-((1-methylpiperidin-4-yl)oxy)phenyl)-1H-indazole-5-carboxamide]
14 | ≤ 5 µM | ≤ 5 µM | ≤ 5 µM | O=C(NC(c1ccccn1)C1CC1)c1ccc2[nH]nc(-c3ccc(OC4CN(C5COC5)C4)cc3)c2c1 (centres unmarked) [Example A209, N-(cyclopropyl(pyridin-2-yl)methyl)-3-(4-((1-(oxetan-3-yl)azetidin-3-yl)oxy)phenyl)-1H-indazole-5-carboxamide]
15 | ≤ 5 µM | ≤ 5 µM | ≤ 5 µM | CN1CCC(Oc2ccc(-c3n[nH]c4ccc(C(=O)NC(c5ccccn5)C5CCC5)cc34)cc2)CC1 (centres unmarked) [Example A210]
16 | ≤ 5 µM | ≤ 5 µM | ≤ 5 µM | O=CN1CCC(Oc2ccc(-c3n[nH]c4ccc(C(=O)N[C@@H](c5ncccc5Cl)C5CC5)cc34)cc2)CC1 [Example A211, (R)—N-((3-chloropyridin-2-yl)(cyclopropyl)methyl)-3-(4-((1-formylpiperidin-4-yl)oxy)phenyl)-1H-indazole-5-carboxamide]
17 |  | ≤ 5 µM | ≤ 5 µM | O=C(N[C@@H](c1ncccc1Cl)C1CC1)c1ccc2[nH]nc(-c3ccc(OC4CCN(C5COC5)CC4)cc3)c2c1 [Example A215, (R)—N-((3-chloropyridin-2-yl)(cyclopropyl)methyl)-3-(4-((1-(oxetan-3-yl)piperidin-4-yl)oxy)phenyl)-1H-indazole-5-carboxamide]
18 |  | ≤ 5 µM | ≤ 5 µM | O=C(N[C@H](c1ncccc1Cl)C1CC1)c1ccc2[nH]nc(-c3ccc(OC4CCN(C5COC5)CC4)cc3)c2c1 [Example A216, (S)—N-((3-chloropyridin-2-yl)(cyclopropyl)methyl)-3-(4-((1-(oxetan-3-yl)piperidin-4-yl)oxy)phenyl)-1H-indazole-5-carboxamide]
